In patent US9387204B2, “Fused bicyclic imidazoles” (BAYER INTELLECTUAL PROPERTY GmbH, priority 2007, dated 2016):

tested on: A549 cells; assay: Cellular proliferation/cytotoxicity assay (Alamar Blue), A549 cells; conditions: Homo sapiens, A549, 72 h, read-out: Anti-proliferative/Cytotoxic activity (A549 cells)
Description: The anti-proliferative activity of the compounds as described herein, is evaluated using the OvCAR3, HCT116 and A549 cell lines and the Alamar Blue (Resazurin) cell viability assay (O'Brien et al. Eur J Biochem 267, 5421-5426, 2000). Resazurin is reduced to the fluorescent resorufin by cellular dehydrogenase activity, correlating with viable, proliferating cells. Test compounds are dissolved as 10 mM solutions in DMSO and subsequently diluted. Cells like HCT116 or A549 cells were seeded into 96 well flat bottom plates at a density of 10000 cells/well (OvCAR3 cells), 1000 cells/well (HCT116 cells) or 2000 cells/well (A549 cells) in a volume of 200 μl/well. 24 hours after seeding, 1 μl each of the compound dilutions are added into each well of the 96 well plates. Each compound dilution is tested as at least as duplicates. Wells containing untreated control cells were filled with 200 μl DMEM (Dulbecco's Modified Eagle Medium) containing 0.5 vol % v:v DMSO. The cells are then incubated with the substances for 72 h at 37° C. in a humidified atmosphere containing 5 vol % CO2. To determine the viability of the cells, 20 μl of a Resazurin solution (90 mg/l) are added. After 4 h incubation at 37° C., the fluorescence is measured by extinction at ? =544 nm and an emission of ? =590 nm (Wallac Victor2; Perkin Elmer, USA). For the calculation of the cell viability, the emission value from untreated cells is set as 100% viability and the fluorescence intensity of treated cells are set in relation to the values of untreated cells. Viabilities are expressed as % values. The corresponding IC50 values of the compounds for cytotoxic activity are determined from the concentration-effect curves by means of non-linear regression. The analysis of the data is performed using a biostatistical program (Graph Pad Prism, USA).

Compared with FC(F)(F)c1ccn2c(-c3ccccc3)c(-c3ccc(CN4CCC(c5n[nH]c(-c6ccccn6)n5)CC4)cc3)nc2n1 [Example 28, 3-phenyl-2-(4-{[4-(5-pyridin-2-yl-1,2,4-triazol-3-yl)piperidin-1-yl]methyl}phenyl)-7-(trifluoromethyl)imidazo[1,2-a]pyrimidine], Brc1cnc2nc(-c3ccc(CN4CCC(c5n[nH]c(-c6ccccn6)n5)CC4)cc3)c(-c3ccccc3)n2c1 [Example 12, 6-bromo-3-phenyl-2-(4-{[4-(5-pyridin-2-yl-1,2,4-triazol-3-yl)piperidin-1-yl]methyl}phenyl)imidazo[1,2-a]pyrimidine] is lower in IC50: over 10 µM for the first, under 10 µM for the second. The second is the more potent here.

c1ccc(-c2c(-c3ccc(CN4CCC(c5n[nH]c(-c6ccccn6)n5)CC4)cc3)nc3sccn23)cc1 [Example 10, 5-phenyl-6-(4-{[4-(5-pyridin-2-yl-1,2,4-triazol-3-yl)piperidin-1-yl]methyl}phenyl)imidazo[2,1-b][1,3]thiazole] and c1ccc(-c2c(-c3ccc(CN4CCC(c5n[nH]c(-c6ccccn6)n5)CC4)cc3)nc3scnn23)cc1 [Example 11, 5-phenyl-6-(4-{[4-(5-pyridin-2-yl-1,2,4-triazol-3-yl)piperidin-1-yl]methyl}phenyl)imidazo[2,1-b][1,3,4]thiadiazole] cannot be ordered by IC50: under 10 µM for the first, under 10 µM for the second.

c1ccc(-c2nc(C3CCN(Cc4ccc(-c5nc6ncccn6c5-c5ccncc5)cc4)CC3)n[nH]2)nc1 [Example 36, 3-pyridin-4-yl-2-(4-{[4-(5-pyridin-2-yl-1,2,4-triazol-3-yl)piperidin-1-yl]methyl}phenyl)imidazo[1,2-a]pyrimidine] and c1ccc(-c2nc(C3CCN(Cc4ccc(-c5nc6ncccn6c5-c5cccs5)cc4)CC3)n[nH]2)nc1 [Example 35, 2-(4-{[4-(5-pyridin-2-yl-1,2,4-triazol-3-yl)piperidin-1-yl]methyl}phenyl)-3-(2-thienyl)imidazo[1,2-a]pyrimidine] cannot be ordered by IC50: over 10 µM for the first, over 10 µM for the second.

COC(O)c1cn2c(-c3ccccc3)c(-c3ccc(CN4CCC(c5n[nH]c(-c6ccccn6)n5)CC4)cc3)nc2s1 (stereo not drawn) [Example 126, methoxy[5-phenyl-6-(4-{[4-(5-pyridin-2-yl-1H-1,2,4-triazol-3-yl)piperidin-1-yl]methyl}phenyl)imidazo[2,1-b][1,3]thiazol-2-yl]methanol] and Brc1ccc2nc(-c3ccc(CN4CCC(c5n[nH]c(-c6ccccn6)n5)CC4)cc3)c(-c3ccccc3)n2c1 [Example 6, 6-bromo-3-phenyl-2-(4-{[4-(5-pyridin-2-yl-1,2,4-triazol-3-yl)piperidin-1-yl]methyl}phenyl)imidazo[1,2-a]pyridine] cannot be ordered by IC50: under 10 µM for the first, under 10 µM for the second.

Compared with CSc1nn2c(-c3ccccc3)c(-c3ccc(CN4CCC(c5nnc(-c6ccccn6)[nH]5)CC4)cc3)nc2s1 [Example 47, 2-(methylsulfanyl)-5-phenyl-6-[4-({4-[5-(pyridin-2-yl)-4H-1,2,4-triazol-3-yl]piperidin-1-yl}methyl)phenyl]imidazo[2,1-b][1,3,4]thiadiazole], CCc1nn2c(-c3ccccc3)c(-c3ccc(CN4CCC(c5nnc(-c6ccccn6)[nH]5)CC4)cc3)nc2s1 [Example 51, 2-ethyl-5-phenyl-6-(4-{[4-(5-pyridin-2-yl-4H-1,2,4-triazol-3-yl)piperidin-1-yl]methyl}phenyl)imidazo[2,1-b][1,3,4]thiadiazole] is lower in IC50: over 10 µM for the first, under 10 µM for the second.

Fc1ccc(-c2c(-c3ccc(CN4CCC(c5n[nH]c(-c6ccccn6)n5)CC4)cc3)nc3ccccn23)cc1 [Example 9, 3-(4-fluorophenyl)-2-(4-{[4-(5-pyridin-2-yl-1,2,4-triazol-3-yl)piperidin-1-yl]methyl}phenyl)imidazo[1,2-a]pyridine] and Brc1cccn2c(-c3ccccc3)c(-c3ccc(CN4CCC(c5n[nH]c(-c6ccccn6)n5)CC4)cc3)nc12 [Example 25, 8-bromo-3-phenyl-2-(4-{[4-(5-pyridin-2-yl-1,2,4-triazol-3-yl)piperidin-1-yl]methyl}phenyl)imidazo[1,2-a]pyridine] cannot be ordered by IC50: under 10 µM for the first, under 10 µM for the second.

c1ccc(-c2nnc(C3CCN(Cc4ccc(-c5nc6scnn6c5-c5ccccc5)cc4)CC3)[nH]2)cc1 [Example 123, 5-phenyl-6-(4-{[4-(5-phenyl-4H-1,2,4-triazol-3-yl)piperidin-1-yl]methyl}phenyl)imidazo[2,1-b][1,3,4]thiadiazole] and N#Cc1ccn2c(-c3ccccc3)c(-c3ccc(CN4CCC(c5nnc(-c6ccccc6)[nH]5)CC4)cc3)nc2c1 [Example 118, 3-phenyl-2-(4-{[4-(5-phenyl-4H-1,2,4-triazol-3-yl)piperidin-1-yl]methyl}phenyl)imidazo[1,2-a]pyridine-7-carbonitrile] cannot be ordered by IC50: under 10 µM for the first, under 10 µM for the second.

Clc1nccn2c(-c3ccccc3)c(-c3ccc(CN4CCC(c5n[nH]c(-c6ccccn6)n5)CC4)cc3)nc12 [Example 26, 8-chloro-3-phenyl-2-(4-{[4-(5-pyridin-2-yl-1,2,4-triazol-3-yl)piperidin-1-yl]methyl}phenyl)imidazo[1,2-a]pyrazine] and NC(=O)c1ccn2c(-c3ccccc3)c(-c3ccc(CN4CCC(c5n[nH]c(-c6ccccn6)n5)CC4)cc3)nc2c1 [Example 38, 3-phenyl-2-(4-{[4-(5-pyridin-2-yl-1,2,4-triazol-3-yl)piperidin-1-yl]methyl}phenyl)imidazo[1,2-a]pyridine-7-carboxamide] cannot be ordered by IC50: over 10 µM for the first, over 10 µM for the second.

In the case of COc1ccc2nc(-c3ccc(CN4CCC(c5n[nH]c(-c6ccccn6)n5)CC4)cc3)c(-c3ccccc3)n2n1 [Example 32, 6-methoxy-3-phenyl-2-(4-{[4-(5-pyridin-2-yl-1,2,4-triazol-3-yl)piperidin-1-yl]methyl}phenyl)imidazo[1,2-b]pyridazine], the IC50 is reported as under 10 µM.

same assay, conditions: read-out: Anti-proliferative/Cytotoxic activity (A549 cells); A549 cells, 72 h, Alamar Blue (Resazurin)

First: c1ccc(-c2c(-c3ccc(CN4CCC(c5nnc(-c6nccs6)[nH]5)CC4)cc3)nc3ccccn23)cc1 [Example 85, ′3-phenyl-2-[4-({4-[5-(1,3-thiazol-2-yl)-4H-1,2,4-triazol-3-yl]piperidin-1-yl}methyl)phenyl]imidazo[1,2-a]pyridine]
Second: N#Cc1ccn2c(-c3ccccc3)c(-c3ccc(CN4CCC(c5nnc(-c6nccs6)[nH]5)CC4)cc3)nc2c1 [Example 89, ′3-phenyl-2-[4-({4-[5-(1,3-thiazol-2-yl)-4H-1,2,4-triazol-3-yl]piperidin-1-yl}methyl)phenyl]imidazo[1,2-a]pyridine-7-carbonitrile]
The IC50 of the first is higher: over 10 µM for the first, under 10 µM for the second.

Compared with c1ccc(-c2c(-c3ccc(CN4CCC(c5nnc(-c6ncccn6)[nH]5)CC4)cc3)nc3sccn23)cc1 [Example 81, ′5-phenyl-6-(4-{[4-(5-pyrimidin-2-yl-4H-1,2,4-triazol-3-yl)piperidin-1-yl]methyl}phenyl)imidazo[2,1-b][1,3]thiazole], c1ccc(-c2c(-c3ccc(CN4CCC(c5nnc(-c6nccs6)[nH]5)CC4)cc3)nc3sccn23)cc1 [Example 87, ′5-phenyl-6-[4-({4-[5-(1,3-thiazol-2-yl)-4H-1,2,4-triazol-3-yl]piperidin-1-yl}methyl)phenyl]imidazo[2,1-b][1,3]thiazole] is lower in IC50: over 10 µM for the first, under 10 µM for the second. The second is the more potent here.

N#Cc1ccn2c(-c3ccccc3)c(-c3ccc(CN4CCC(c5nnc(-c6ccc[nH]6)[nH]5)CC4)cc3)nc2c1 [Example 110, ′3-phenyl-2-[4-({4-[5-(1H-pyrrol-2-yl)-4H-1,2,4-triazol-3-yl]piperidin-1-yl}methyl)phenyl]imidazo[1,2-a]pyridine-7-carbonitrile] and Cc1ccc(-c2nnc(C3CCN(Cc4ccc(-c5nc6cc(C#N)ccn6c5-c5ccccc5)cc4)CC3)[nH]2)nc1 [Example 72, ′2-[4-({4-[5-(5-methylpyridin-2-yl)-4H-1,2,4-triazol-3-yl]piperidin-1-yl}methyl)phenyl]-3-phenylimidazo[1,2-a]pyridine-7-carbonitrile] cannot be ordered by IC50: under 10 µM for the first, under 10 µM for the second.

c1ccc(-c2c(-c3ccc(CN4CCC(c5nnc(-c6ncccn6)[nH]5)CC4)cc3)nc3ccccn23)cc1 [Example 80, ′3-phenyl-2-(4-{[4-(5-pyrimidin-2-yl-4H-1,2,4-triazol-3-yl)piperidin-1-yl]methyl}phenyl)imidazo[1,2-a]pyridine] and c1ccc(-c2c(-c3ccc(CN4CCC(c5nnc(-c6ccco6)[nH]5)CC4)cc3)nc3ncccn23)cc1 [Example 95, ′2-[4-({4-[5-(2-furyl)-4H-1,2,4-triazol-3-yl]piperidin-1-yl}methyl)phenyl]-3-phenylimidazo[1,2-a]pyrimidine] cannot be ordered by IC50: over 10 µM for the first, over 10 µM for the second.

Cc1ccc2nc(-c3ccc(CN4CCC(c5nnc(-c6ccco6)[nH]5)CC4)cc3)c(-c3ccccc3)n2n1 [Example 92, ′2-[4-({4-[5-(2-furyl)-4H-1,2,4-triazol-3-yl]piperidin-1-yl}methyl)phenyl]-6-methyl-3-phenylimidazo[1,2-b]pyridazine] and Cc1ccc(-c2nnc(C3CCN(Cc4ccc(-c5nc6sccn6c5-c5ccccc5)cc4)CC3)[nH]2)nc1 [Example 73, ′6-[4-({4-[5-(5-methylpyridin-2-yl)-4H-1,2,4-triazol-3-yl]piperidin-1-yl}methyl)phenyl]-5-phenylimidazo[2,1-b][1,3]thiazole] cannot be ordered by IC50: under 10 µM for the first, under 10 µM for the second.

c1ccc(-c2c(-c3ccc(CN4CCC(c5cc(-c6ccccn6)[nH]n5)CC4)cc3)nc3scnn23)cc1 [Example 112, ′5-phenyl-6-(4-{[4-(5-pyridin-2-yl-1H-pyrazol-3-yl)piperidin-1-yl]methyl}phenyl)imidazo[2,1-b][1,3,4]thiadiazole] and c1ccc(-c2c(-c3ccc(CN4CCC(c5noc(-c6ccccn6)n5)CC4)cc3)nc3ncccn23)cc1 [Example 116, ′3-phenyl-2-(4-{[4-(5-pyridin-2-yl-1,2,4-oxadiazol-3-yl)piperidin-1-yl]methyl}phenyl)imidazo[1,2-a]pyrimidine] cannot be ordered by IC50: under 10 µM for the first, under 10 µM for the second.

For N#Cc1ccn2c(-c3ccccc3)c(-c3ccc(CN4CCC(c5nc(-c6ccncc6)n[nH]5)CC4)cc3)nc2c1 [Example 57, ′3-phenyl-2-(4-{[4-(3-pyridin-4-yl-1H-1,2,4-triazol-5-yl)piperidin-1-yl]methyl}phenyl)imidazo[1,2-a]pyridine-7-carbonitrile], the IC50 was under 10 µM.
